Measured values published in ChEMBL document CHEMBL1155179 (J Med Chem, 2009).
pKi: −log10 of the molar value.

Columns and labels:
Format in all cases: tissue-based
[1] = target: T1, Synaptic vesicular amine transporter (Rattus norvegicus, UniProt Q01827); assay: Displacement of [3H]DTBZ from VMAT2 dihydrotetrabenazine binding site in rat brain synaptic vesicle by scintillation counting
[2] = target: Synaptic vesicular amine transporter (Rattus norvegicus) (UniProt Q01827); assay: Ratio of Ki for displacement of [3H]DTBZ from VMAT2 dihydrotetrabenazine binding site in rat brain synaptic vesicle to Ki for inhibition of [3H]dopamine uptake at VMAT2 in rat brain synaptic vesicle
Sequence of Synaptic vesicular amine transporter (Rattus norvegicus) (Q01827 whole entry): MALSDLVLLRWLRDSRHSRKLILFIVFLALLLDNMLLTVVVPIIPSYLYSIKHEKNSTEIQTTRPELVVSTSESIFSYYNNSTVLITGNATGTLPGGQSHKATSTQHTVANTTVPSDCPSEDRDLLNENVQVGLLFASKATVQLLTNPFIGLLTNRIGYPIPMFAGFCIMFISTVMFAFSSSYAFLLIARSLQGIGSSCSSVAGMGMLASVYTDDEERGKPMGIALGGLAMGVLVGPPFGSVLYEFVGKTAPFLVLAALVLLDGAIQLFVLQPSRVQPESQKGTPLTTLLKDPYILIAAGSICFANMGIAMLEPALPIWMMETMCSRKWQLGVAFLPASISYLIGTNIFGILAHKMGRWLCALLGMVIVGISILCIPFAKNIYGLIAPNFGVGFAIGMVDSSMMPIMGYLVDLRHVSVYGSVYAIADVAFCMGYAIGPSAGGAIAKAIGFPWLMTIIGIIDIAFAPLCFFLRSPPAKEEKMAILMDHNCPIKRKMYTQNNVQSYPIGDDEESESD

[3] = target: T1, Synaptic vesicular amine transporter; assay: Inhibition of [3H]dopamine uptake at VMAT2 in rat brain synaptic vesicle by liquid scintillation spectroscopy

T1 sequence (Q01827 whole entry): as above

How did the pKi [1] turn out when CN1[C@H](CCc2ccccc2)CC[C@@H]1CCc1ccccc1 was run?
Its pKi is 5.06.

And the Ratio Ki [2]?
Its Ratio Ki is 32.6.

What about the pKi [3] of the same compound?
Its pKi is 6.57.

CN1[C@H](CCCc2ccccc2)CC[C@@H]1CCCc1ccccc1 was tested. Which pKi [1] did it give?
The pKi was 5.56.

And the Ratio Ki [2]?
The Ratio Ki was 23.2.

What about the pKi [3] of the same compound?
Its pKi is 6.92.

What does the source list for c1ccc(CC[C@@H]2CC[C@@H](CCc3ccccc3)N2)cc1?
pKi [1]: 5.47; Ratio Ki [2]: 63; pKi [3]: 7.27

c1ccc(CCC[C@@H]2CC[C@H](CCCc3ccccc3)N2)cc1 was tested. Which pKi [1] did it give?
Its pKi is 6.57.

And the Ratio Ki [2]?
The Ratio Ki was 19.3.

What about the pKi [3] of the same compound?
The pKi was 7.85.

Which Ratio Ki [2] does the source give for c1ccc(CC[C@H]2CCC[C@@H](CCc3ccccc3)N2)cc1 here?
The Ratio Ki was 100.

What about the pKi [3] of the same compound?
The pKi was 7.64.

What does the source list for CN1[C@H](CCc2ccccc2)CC[C@H]1CCc1ccccc1?
pKi [1]: 5.40; Ratio Ki [2]: 33.1; pKi [3]: 6.92

How did the pKi [1] turn out when OC[C@@H](c1ccccc1)N1[C@H](CCc2ccccc2)CC[C@@H]1CCc1ccccc1 was run?
Its pKi is 5.56.

What about the Ratio Ki [2] of the same compound?
Its Ratio Ki is 19.6.

And the pKi [3]?
Its pKi is 6.85.

How did the pKi [1] turn out when OC[C@H](c1ccccc1)N1[C@H](CCc2ccccc2)CC[C@@H]1CCc1ccccc1 was run?
Its pKi is 5.36.

What about the Ratio Ki [2] of the same compound?
Its Ratio Ki is 3.36.

And the pKi [3]?
Its pKi is 5.89.

What does the source list for c1ccc(C[C@H]2CC[C@@H](Cc3ccccc3)N2)cc1?
pKi [1]: 5.79; Ratio Ki [2]: 176; pKi [3]: 8.03

With OC[C@@H](c1ccccc1)N1[C@@H](CCc2ccccc2)CC[C@@H]1CCc1ccccc1 as the compound, how does the pKi [1] read?
The pKi was 5.25.

And the Ratio Ki [2]?
The Ratio Ki was 20.7.

What about the pKi [3] of the same compound?
Its pKi is 6.57.

What does the source list for CN1[C@@H](Cc2ccccc2)CC[C@H]1Cc1ccccc1?
pKi [1]: 5.61; Ratio Ki [2]: 130; pKi [3]: 7.72

Which results are given for OC[C@H](c1ccccc1)N1[C@H](CCc2ccccc2)CC[C@H]1CCc1ccccc1?
pKi [1]: 5.30; Ratio Ki [2]: 2.6; pKi [3]: 5.71

Which results are given for CN1[C@@H](CCc2ccccc2)CC[C@@H]1CCc1ccccc1?
pKi [1]: 4.84; Ratio Ki [2]: 85; pKi [3]: 6.77

With c1ccc(CC[C@@H]2CC[C@H](CCc3ccccc3)N2)cc1 as the compound, how does the pKi [1] read?
Its pKi is 5.51.

What about the Ratio Ki [2] of the same compound?
Its Ratio Ki is 106.

What about the pKi [3] of the same compound?
The pKi was 7.54.

How did the pKi [1] turn out when c1ccc(CC[C@H]2CC[C@H](CCc3ccccc3)N2)cc1 was run?
Its pKi is 5.88.

And the Ratio Ki [2]?
Its Ratio Ki is 38.

What about the pKi [3] of the same compound?
The pKi was 7.46.
